Assays:
[1] = tested on: NR4A2-deficient mouse in which monophasic EAE had been induced; assay: EAE clinical score in NR4A2-deficient mice with induced monophasic EAE; assay type: in vivo
Excerpt: (§1) Into each CD4-Cre/NR4A2^fl/fl mouse in which monophasic EAE had been induced in a similar manner to the above 1.(3), L-dopa or a placebo (DMSO and PBS) was intraperitoneally injected every other day from day 4 after the induction.

[2] = tested on: CD4+ T cells, CD19+ B cells, CD19-CD45hi non-B/class II+ antigen-presenting cells infiltrated into the CNS; assay: Eomes and Zbtb20 expression in CNS-infiltrated cells after L-dopa dosing (FACS); assay type: in vivo, mouse; settings: CNS at day 32 after the induction
Excerpt: as §1
Next, the brain and the spinal cord were collected from each mouse at day 32 after the induction; and CD4^+ T cells, CD19^+ B cells, or CD19^−CD45^hi non-B/class II^+ antigen-presenting cells infiltrated into the CNS were sorted by FACS using a FACS ARIA II (manufactured by BD Cytometry Systems, Inc.). The respective sorted cells were stained and analyzed regarding the Eomes and Zbtb20 gene expressions. As antibodies used at the detection were an anti-CD4 antibody (manufactured by Biolegend, Inc.), an anti-Eomes antibody (manufactured by eBioscience, Inc.), an anti-CD19 antibody (manufactured by Biolegend, Inc.), and an anti-Zbtb20 antibody (manufactured by Becton Dickinson, Inc.).

prolactin gene (Prl) = assay: Prolactin gene (Prl) expression in CNS-derived antigen-presenting cells after L-dopa dosing (quantitative real-time PCR); assay type: in vivo, mouse; settings: CNS-derived B cells and non-B/class II+ antigen-presenting cells; repeated dosing; FIG. 25
Experimental: Next, CD19^+ B cells and CD19^−CD45^hi non-B/class II^+ antigen-presenting cells were separated from the CNS or the spleen of each L-dopa-administered mouse or each intact mouse; and the expression levels of prolactin gene (Prl) in these types of cells were analyzed by using a quantitative real-time PCR assay. As antibodies used at the detection were an anti-CD19 antibody (manufactured by Biolegend, Inc.) and an anti-CD45 antibody (manufactured by Biolegend, Inc.).

[3] = tested on: CD19+ B cells or CD19-CD45hi non-B/class II+ antigen-presenting cells; settings: CD19+ B cells and CD19-CD45hi non-B class II+ cells; cultured 24, 48 or 96 h with dopamine; FIG. 22
Experimental: CD19^+ B cells or CD19^−CD45^hi non-B/class II^+ antigen-presenting cells were purified from each mouse with the late-stage EAE pathology by sorting by FACS. The respective purified cells were cultured for 24, 48, or 96 h in the absence of dopamine or in the presence of a specific amount of dopamine. Next, the cultured cells were recovered and the prolactin gene (Prl) and Zbtb20 gene expression levels were analyzed by using a quantitative real-time PCR assay.

[4] = tested on: Spleen-derived CD19+ B cells; assay: Zbtb20 expression in spleen-derived CD19+ B cells cultured with LPS and various cytokines; assay type: cell-based, mouse; settings: cultured for 24 h in the presence of LPS and cytokine; FIG. 33
Experimental: Spleen-derived CD19^+ B cells were isolated and purified by sorting by FACS using a FACS ARIA II (manufactured by BD Cytometry Systems, Inc.). The purified B cells were cultured for 24 h in the presence of LPS and in the co-presence or absence of each cytokine designated in FIG. 33(a). After the culturing, the expression levels of Zbtb20 gene in the respective cells were measured. As antibodies used at the detection were an anti-CD19 antibody (manufactured by Biolegend, Inc.) and an anti-Zbtb20 antibody (manufactured by Becton Dickinson, Inc.).

[5] = tested on: Spleen-derived CD226+CD4+ T cells; assay: Culturing of spleen-derived CD226+CD4+ T cells in co-presence of prolactin, Eomes expression (flow cytometer / quantitative real-time PCR); assay type: cell-based, mouse
Experimental: Spleen-derived CD226^+CD4^+ T cells collected from each intact wild-type B6 mouse were cultured for 4 h or 8 h in the absence of prolactin or in the presence of each specific amount of prolactin. The Eomes expression levels in the respective cells after the culturing were measured by using a flow cytometer or a quantitative real-time PCR assay. As antibodies used at the detection were an anti-CD4 antibody (manufactured by Biolegend, Inc.) and an anti-Eomes antibody (manufactured by eBioscience, Inc.).

Spleen-derived Th cells = assay: Prolactin addition and Eomes gene expression in spleen-derived Th cells (quantitative real-time PCR); assay type: cell-based, mouse; settings: cultured 8 h; recombinant prolactin at low and high concentration; FIG. 15
Experimental: Spleen-derived Th cells of each intact mouse were cultured for 8 h in the absence or presence of recombinant prolactin. After the culturing, total RNA was extracted from the Th cells. A first strand cDNA synthesis kit (manufactured by Takara Bio Inc.) was used to synthesize cDNA from the total RNA obtained. A Light Cycler instrument was used under conditions using a Light Cycler-Fast Start DNA Master SYBR Green I kit (manufactured by Roche Diagnostics, Inc.) or an ABI 7300 real-time PCR instrument was used under conditions using a Power SYBR Green Master mix (manufactured by Applied Biosystems, Inc.) to perform a quantitative real-time PCR assay by using commercially available primers (QuantiTect Primer Assay, QT01074332; manufactured by Qiagen, Inc.). The Eomes gene expression levels were corrected based on the expression level of a housekeeping gene GAPDH.

[6] = tested on: Spleen-derived CD226+ Th cells; assay: Prolactin addition and Eomes protein expression in spleen-derived CD226+ Th cells (FACS); assay type: cell-based, mouse; settings: cultured for 48 h in the presence of prolactin; FIG. 16
Experimental: Spleen-derived CD226^+ Th cells were cultured for 8 h or 48 h in the absence or presence of prolactin. After the culturing, the CD226^+ Th cells were stained with an anti-CD226 antibody and an anti-Eomes antibody, and a FACS CANTO II (manufactured by BD Cytometry Systems, Inc.) was used to analyze CD226^+Eomes^+ T cells, CD226^+ Eomes^− T cells, and CD226^− T cells. As the antibodies used during the analysis were an anti-CD226 antibody (manufactured by Biolegend, Inc.) and an anti-Eomes antibody (manufactured by Biolegend, Inc.).

N[C@@H](Cc1ccc(O)c(O)c1)C(=O)O [L-dopa, L-3,4-dihydroxyphenylalanine]
cumulative EAE scores ([1]; intraperitoneally every other day from day 4, right graph of FIG. 23): improvement | EAE scores ([1]; intraperitoneally every other day from day 4 after the induction, FIG. 23): improve markedly | percentage of CD4+Eomes+ T cells in the CD4+ T cells ([2]; FIG. 24(a)): decrease markedly | percentage of Zbtb20+ cells in the CD19+ B cells ([2]; FIG. 24(b)): decrease | percentage of Zbtb20+ cells in the CD19-CD45hi non-B/class II+ antigen-presenting cells ([2]; FIG. 24(c)): decrease | expression levels of prolactin gene (prolactin gene (Prl)): decrease

NCCc1ccc(O)c(O)c1 [dopamine]
Zbtb20 gene expression levels [3]: decreased markedly | prolactin gene expression levels [3]: decreased markedly

IFNα
increase in the expression of Zbtb20 gene [4]: the most remarkable

B1: prolactin: recombinant prolactin added to Th cell cultures (protein, UniProt P01236 29-227, looked up)
Prolactin: LPICPGGAARCQVTLRDLFDRAVVLSHYIHNLSSEMFSEFDKRYTHGRGFITKAINSCHTSSLATPEDKEQAQQMNQKDFLSLIVSILRSWNEPLYHLVTEVRGMQEAPEAILSKAVEIEEQTKRLLEGMELIVSQVHPETKENEIYPVWSGLPSLQMADEESRLSAYYNLLHCLRRDSHKIDNYLKLLKCRIIHNNNC
Eomes gene expression level ([5]; prolactin at 30 ng/mL, FIG. 8(b)): increased | percentage of CD4+Eomes+ T cells ([5]; prolactin at 30 or 100 ng/mL, cultured 4 h or 8 h, FIG. 7, 8(a)): increased markedly | relative expression level of Eomes relative to that of a housekeeping gene (Spleen-derived Th cells): increased in a prolactin concentration-dependent fashion | Eomes expression levels [6]: increased more markedly
